Where two headings read alike, the source gives them in different places.
What was measured:
[1] = Brain plasma ratio at Cmax after single oral dose of Pioglitazone; type: in vivo, male C57BL/6 mice; conditions: male, C57BL/6, mouse, single oral Pioglitazone 4.5 mg/kg, parent and metabolites quantified, read-out: percentage brain plasma ratio
Method: The brain plasma ratios of Pioglitazone, MIV, MIII and MII following oral dosing of a single administration of Pioglitazone at 4.5 mg/kg in male C57BL/6 mice.
The brain-plasma ratio was calculated based on levels of Pioglitazone, MIV, MIII and MII in plasma and brain quantified at C max (maximal concentration) following oral dosing of a single administration of Pioglitazone at 4.5 mg/kg in male C57BL/6 mice.

[2] = Brain plasma ratio from AUC of plasma and brain profiles after single oral dose of Pioglitazone or MIV; type: in vivo, male C57BL/6 mice; conditions: male, C57BL/6, mouse, single oral 4.5 mg/kg of the compound itself, read-out: percentage brain-plasma ratio
Method: The brain plasma ratios of Pioglitazone and MIV and following oral dosing of a single administration of either Pioglitazone or M-IV both at 4.5 mg/kg in male C57BL/6 mice. […] The brain-plasma ratio was calculated based on the pharmacokinetics curves of plasma and brain concentration-time profiles calculated as area under the curves of Pioglitazone and following oral dosing of a single administration of either Pioglitazone or MIV both at 4.5 mg/kg in male C57BL/6 mice.

[3] = Pharmacokinetic profile and brain distribution after single oral and intravenous dose; type: in vivo, male C57 BL/6 mice
Method: Protocol: Pharmacokinetic parameters and brain distribution of 5-(4-(2-(5-(1-hydroxyethyl)pyridine-2-yl)ethoxy)benzyl)thiazolidine-2,4-dione (racemate or stereoisomers) following single oral (4.5 mg/kg) and intravenous (1 mg/kg) dose administration to male C57 BL/6 mice were determined. Blood samples and brain samples were collected pre-dosing and different times post dosing for both oral and i.v pharmacokinetics. All samples were processed for analysis by protein precipitation using acetonitrile and analyzed with fit-for-purpose LC/MS/MS method. The lower limit of quantification (LLOQ) in plasma and brain for 5-(4-(2-(5-(1-hydroxyethyl)pyridine-2-yl)ethoxy)benzyl)thiazolidine-2,4-dione (1) is 0.99 ng/mL. Pharmacokinetic parameters were calculated using the non-compartmental analysis tool of Phoenix WinNonlin.

[4] = system: primary rat cortical neurons injured by glutamate; test: Primary cortical neurons injured by glutamate, survival by MTT; type: cell-based
Method: Protocol: Rat cortical neurons were cultured as described by Singer (J Neurosci. 1999 Apr. 1; 19(7):2455-63) and Callizot (J Neurosci Res. 2013 May; 91(5):706-16).
Foetuses were collected and immediately placed in ice-cold Leibovitz medium. Cortex was treated with a trypsin-EDTA solution and the dissociation was stopped by addition of Dulbecco's modified Eagle's medium (DMEM) with glucose (Pan Biotech), containing DNAse I and 10% fetal calf serum (FCS). Cells were mechanically dissociated and centrifuged. The pellet was resuspended in a defined culture medium with 10 ng/ml of brain-derived neurotrophic factor (BDNF). The cells were seeded in 96-well plates precoated with poly-L-lysine and were cultured at 37°. The medium was changed every 2 days. The cortical neurons were intoxicated with glutamate after 13 days of culture.
Briefly, on day 13 of culture, BDNF and test compound were pre-incubated with primary cortical neurons for 1 hour before glutamate exposure. Glutamate was added to a final concentration of 40 μM diluted in control medium in presence of BDNF or test compound for 20 min.
After 20 min, glutamate was washed out and fresh culture medium with BDNF or test compound was added for additional 48 hours. The survival evaluation was done by a MTT assay performed with CellTiter 96® Aqueous One Solution Cell Proliferation Assay (Promega).

[5] = target: T1, Human recombinant monoamine oxidase MAO-B (Homo sapiens, UniProt P27338); test: MAO-B inhibition, kynuramine fluorescence assay; type: biochemical
T1 construct: purchased Sigma Aldrich M7441
T1 sequence (P27338 1-520): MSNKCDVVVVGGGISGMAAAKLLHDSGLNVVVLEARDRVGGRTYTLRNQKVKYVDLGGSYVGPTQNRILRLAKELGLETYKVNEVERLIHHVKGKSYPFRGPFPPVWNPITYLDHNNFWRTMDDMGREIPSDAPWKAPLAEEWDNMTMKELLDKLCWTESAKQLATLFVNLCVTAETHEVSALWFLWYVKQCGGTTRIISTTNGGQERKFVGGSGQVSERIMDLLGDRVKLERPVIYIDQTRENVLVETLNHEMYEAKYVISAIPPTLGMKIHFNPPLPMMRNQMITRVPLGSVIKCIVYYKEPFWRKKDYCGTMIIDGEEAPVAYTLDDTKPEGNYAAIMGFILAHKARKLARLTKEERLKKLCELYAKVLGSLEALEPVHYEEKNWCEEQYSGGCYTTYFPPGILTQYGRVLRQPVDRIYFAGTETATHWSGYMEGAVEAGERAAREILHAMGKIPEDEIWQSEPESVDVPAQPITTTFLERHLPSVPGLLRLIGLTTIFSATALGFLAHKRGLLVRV
Excerpt: (§1) Protocol: Human recombinant monoamine oxidase proteins MAO-A and MAO-B were purchased from Sigma Aldrich (Reference M7316 and M7441 respectively). In order to monitor the MAO enzymatic activities and their inhibition rate a fluorescence based assay was used. The substrate for the assay, kynuramine, is non-fluorescent until undergoing oxidative deamination by MAOs resulting in the fluorescent product 4-hydroxyquinoline. Kynuramine is a substrate for both MAO-A and -B (non-specific substrate). Clorgiline and Deprenyl (Sigma Aldrich) were used as controls for specific inhibition of MAO-A and MAO-B respectively.

[6] = target: T2, Human recombinant monoamine oxidase MAO-A (Homo sapiens, UniProt P21397); test: MAO-A inhibition, kynuramine fluorescence assay; type: biochemical
T2 construct: purchased Sigma Aldrich M7316
T2 sequence (P21397 1-527): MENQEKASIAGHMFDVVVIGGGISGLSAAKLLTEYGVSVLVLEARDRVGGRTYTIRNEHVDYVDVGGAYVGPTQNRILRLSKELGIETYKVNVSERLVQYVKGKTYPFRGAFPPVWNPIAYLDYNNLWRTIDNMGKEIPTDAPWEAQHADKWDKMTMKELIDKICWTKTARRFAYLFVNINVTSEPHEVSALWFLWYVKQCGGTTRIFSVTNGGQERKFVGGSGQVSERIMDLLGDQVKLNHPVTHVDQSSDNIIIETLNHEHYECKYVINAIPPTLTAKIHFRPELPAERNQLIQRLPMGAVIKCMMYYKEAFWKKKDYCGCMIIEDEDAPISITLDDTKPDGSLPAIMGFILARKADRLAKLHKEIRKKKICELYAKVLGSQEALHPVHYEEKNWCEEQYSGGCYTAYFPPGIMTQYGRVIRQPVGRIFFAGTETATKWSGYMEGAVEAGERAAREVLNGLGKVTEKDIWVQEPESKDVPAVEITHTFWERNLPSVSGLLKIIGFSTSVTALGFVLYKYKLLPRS
Excerpt: as §1

[7] = system: X-linked adrenoleukodystrophy fibroblasts; test: X-ALD patient fibroblasts, cell survival (MTT); type: cell-based, human; conditions: at 3, M, vs non-treated, 24 hours
Method: Human control and X-linked adrenoleukodystrophy fibroblasts were obtained from Coriell (Candem, USA). Cells were grown in Dulbecco's modified Eagle medium containing 10% foetal bovine serum, 100 U/ml penicillin and […], at 37° C. in humidified 95% air/5% CO2, to 80-90% confluence. To perform our experiments, Dulbecco's modified Eagle medium without D-glucose, pyruvate or L-glutamine was used. Cells were cultured in this medium supplemented with 1 g/l of glucose or 1 g/l of galactose and 10% foetal bovine serum for 24 hours incubated with increasing doses of MIV (3, 10 and 30 μM).
The determination of MTT was performed as described by Mosmann J. Immunol. Methods 1983, 65, 55-63 and by Hansen J. Immunol. Methods 1989; 119, 203-210. This method is based on the ability of viable but not dead cells to convert the tetrazolium salt (MTT) to colored formazan.
For the determination of ATP levels, 2×10^4 cells/well were seeded in 96 well cell culture plate in complete medium. After 16-18 h cells, were lysed in 20 μl lysis buffer and 10 μl of lysate was used to measure ATP levels using ATP determination Kit (Molecular Probes, Invitrogen). 1 μl each of the remaining lysate was used for protein measurement.

[8] = system: Rat spinal cord (SC) motor neurons injured by glutamate; test: Spinal cord motor neurons injured by glutamate, survival by MAP-2 immunostaining; type: cell-based; conditions: 1 μM, glutamate 10 μM 20 min, 48 hours, p<0.05
Method: Protocol: Rat spinal cord (SC) motor neurons were cultured as described by Martinou (Neuron. 1992 April; 8(4):737-44) and Wang (PLoS Genet. 2013; 9(9)). Briefly, pregnant female rats of 14 days gestation were killed by cervical dislocation and foetuses were collected and immediately placed in ice-cold L15 Leibovitz medium. Spinal cord was treated for 20 min at 37° C. with a trypsin-EDTA. The dissociation was stopped by addition of Dulbecco's modified Eagle's medium (DMEM) with glucose (Pan Biotech), containing DNAse I and 10% fetal calf serum (FCS). Cells were mechanically dissociated and they were then centrifuged. The pellet was resuspended in a defined culture medium with 10 ng/ml of brain-derived neurotrophic factor (BDNF). The cells were seeded in 96-well plates precoated with poly-L-lysine and were cultured at 37°. The medium was changed every 2 days.
Briefly, on day 13 of culture, BDNF or test compound was pre-incubated with primary Spinal cord (SC) motor neurons for 1 hour before glutamate exposure. Glutamate was added to a final concentration of 10 μM diluted in control medium in presence of BDNF or test compound for 20 min. […]
For each condition 6 wells were assessed, 30 pictures per well were taken using ImageXpress (Molecular Device) with 20× magnification. […]

[9] = system: experimental autoimmune encephalomyelitis (EAE)
[10] = diabetic preclinical models; cited from earlier work

With `CCc1ccc(CCOc2ccc(CC3SC(=O)NC3=O)cc2)nc1` (stereo not shown) [Pioglitazone, reference compound] the Kp ([1]; brain and plasma) was 0.09 and the Kp [2] was 0.08.

For `CC(O)c1ccc(CCOc2ccc(CC3SC(=O)NC3=O)cc2)nc1` (racemic) [compound (1), 5-[4-[2-(5-(1-hydroxyethyl)-2-pyridinyl)ethoxy]benzyl]-2,4-thiazolidinedione], the “brain concentrations observed until” value ([3]; both intravenous and oral profiles) was 8 h, the Kp ([3]; male, mouse, brain and plasma, C57BL/6 mice, single oral 4.5 mg/kg / i.v. 1 mg/kg, read-out: brain-to-plasma exposure (AUClast) ratio) was 0.12 and the bioavailability ([3]; male, mouse, plasma, oral 4.5 mg/kg vs i.v. 1 mg/kg, C57BL/6 mice) was 85%. It also gave a clearance ([3]; male, mouse, plasma, single intravenous 1 mg/kg, C57BL/6 mice, read-out: systemic plasma clearance) of 11.8 mL/min/kg, a half-life ([3]; male, mouse, plasma, single intravenous 1 mg/kg, C57BL/6 mice, read-out: terminal elimination plasma half-life (converted)) of 107 min and a Tmax ([3]; male, mouse, plasma, single oral 4.5 mg/kg, C57BL/6 mice, read-out: Tmax in plasma) of 30 min. The Tmax ([3]; male, mouse, C57BL/6 mice, brain, read-out: Tmax in brain) was 30 min, the “plasma concentrations observed until” value ([3]; single oral 4.5 mg/kg, 1 animal) was 24 h and the Kp ([1]; brain and plasma) was 0.13. The Kp [2] was 0.12, the “protective effect on glutamate injury (survival, MTT)” value ([4]; 3 μM, glutamate 40 μM 20 min, 48 hours) was “full protective effect” and the IC50 [5] was 70.5 nM. For the same molecule, the “inhibition of MAO A protein” value [6] was “did not inhibit”, the “increase in cell survival” value [7] was 20% and the “effect on cell survival vs the control with glutamate” value [8] was “protective effect”. For the same molecule, the “development and severity of EAE (clinical scores)” value ([9]; bid from day 5 post immunization for 15 days, three increasing doses) was “reduces the development and severity”, the “body weight loss associated to treatment” value ([9]; mouse, in vivo) was “No body weight loss” and the “hematological toxicity associated to treatment” value ([9]; mouse, in vivo) was “no significant hematological toxicity”.

In the case of `CC(=O)c1ccc(CCOc2ccc(CC3SC(=O)NC3=O)cc2)nc1` (stereo not shown) [MIII, 5-(4-(2-(5-acetyl-2-pyridyl)ethoxy)benzyl)-2,4-thiazolidinedione], the Kp ([1]; brain and plasma) is given as 0.07 and the “pharmacological activity relative to Pioglitazone” value [10] is given as “less active than Pioglitazone”.

For `CCc1ccc(C(O)COc2ccc(CC3SC(=O)NC3=O)cc2)nc1` (stereo not shown) [MII], the Kp ([1]; in vivo) is given as 0.01 and the “pharmacological activity relative to Pioglitazone” value [10] is given as “less active than Pioglitazone”.

B1: BDNF: brain-derived neurotrophic factor, reference compound (protein, UniProt P23560 19-247, looked up)
Neurotrophic factor BDNF …: APMKEANIRGQGGLAYPGVRTHGTLESVNGPKAGSRGLTSLADTFEHVIEELLDEDQKVRPNEENNKDADLYTSRVMLSSQVPLEPPLLFLLEEYKNYLDAANMSMRVRRHSDPARRGELSVCDSISEWVTAADKKTAVDMSGGTVTVLEKVPVSKGQLKQYFYETKCNPMGYTKEGCRGIDKRHWNSQCRTTQSYVRALTMDSKKRIGWRFIRIDTSCVCTLTIKRGR
For B1, the “protective effect on glutamate injury (survival, MTT)” value ([4]; 50 ng/ml, reference compound) was “full protective effect”.
